From PubChem BioAssay (NCI)
Several values for one entry are separate records, joined by “and”; a condition that tells them apart may be missing. Equal entries are not always repeated.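 Tested at 5 concentrations; 48 h exposure; 96-well plates; endpoints linearly interpolated, else capped at highest concentration. The concentration for 50% growth inhibition is given as GI50. TGI: concentration producing complete growth inhibition.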

Columns and labels:
Assay in all cases: NCI anticancer screen, dose series, 48 h
M14 melanoma = system: M14 melanoma
NCI-H226 lung = system: NCI-H226 lung
CCRF-CEM leukemia = system: CCRF-CEM leukemia
IGROV1 ovarian = system: IGROV1 ovarian
HL-60(TB) leukemia = system: HL-60(TB) leukemia
COLO 205 colon = system: COLO 205 colon
NCI-H522 lung = system: NCI-H522 lung
MOLT-4 leukemia = system: MOLT-4 leukemia
EKVX NSCLC = system: EKVX NSCLC
PC-3 prostate = system: PC-3 prostate

Compound	TGI (M14 melanoma) [µM]	TGI (NCI-H226 lung) [µM]	TGI (CCRF-CEM leukemia) [µM]	TGI (IGROV1 ovarian) [µM]	TGI (HL-60(TB) leukemia)	TGI (COLO 205 colon) [µM]	TGI (NCI-H522 lung) [µM]	TGI (MOLT-4 leukemia)	TGI (EKVX NSCLC) [µM]	TGI (PC-3 prostate) [µM]	GI50 (M14 melanoma)	GI50 (NCI-H226 lung)	GI50 (CCRF-CEM leukemia)	GI50 (IGROV1 ovarian)	GI50 (HL-60(TB) leukemia)	GI50 (PC-3 prostate)	GI50 (MOLT-4 leukemia)	GI50 (EKVX NSCLC)	GI50 (COLO 205 colon) [µM]	GI50 (NCI-H522 lung) [µM]
O=S1(=O)c2ccccc2N(O)C2=NCCN21	> 100	> 100	> 100	> 100	> 100 µM	> 100	> 100	> 100 µM	> 100	–	–	–	–	–	–	–	–	–	–	–
O=C1CCCCCCC2=C1C(Sc1ccccc1)CC2 (stereo unspecified)	> 100	> 100	67.8	–	36.2 µM	> 100	41.4	> 100 µM	85.2	–	–	–	–	–	–	–	–	–	–	–
COc1ccc(CC(=O)NCCc2ccc(OC)c(OC)c2OC)cc1	> 100	> 100	> 100	> 100	–	–	> 100	> 100 µM	> 100	–	–	–	–	–	–	–	–	–	–	–
O=C1Nc2c(Cl)cc(Cl)cc2/C1=N/N=C/c1ccco1	> 100	59.2	> 100	> 100	> 100 µM	73.3	–	> 100 µM	84.9	> 100	–	–	–	–	–	–	–	–	–	–
CCCCCCCCCCCCSC(=S)c1c(C)[nH]n(-c2ccccc2)c1=O	> 50	> 50	23.2	> 50	24.4 µM	> 50	–	46.1 µM	> 50	–	–	–	–	–	–	–	–	–	–	–
CC(C)(C)OC(=O)C1C(=O)NC(=O)CC1CC(OCc1ccccc1)C(OCc1ccccc1)C(COCc1ccccc1)OCc1ccccc1 (stereo unspecified)	> 100	> 100	> 100	> 100	46.5 µM and 11.1 µM	–	–	> 100 µM and 28.1 µM	> 100	> 100	55.1 µM and 27.2 µM	33 µM and 14 µM	60.6 µM and 11.8 µM	> 100 µM and 22.3 µM	16.6 µM and 2.81 µM	54.7 µM and 8.16 µM	14.1 µM and 3.86 µM	62.2 µM and 12.6 µM	–	–
O=C(C[n+]1ccccc1)N/N=C(/CCC(=O)N(Cc1ccccc1)Cc1ccccc1)CC(=O)c1ccccc1	> 100	> 100	> 100	> 100	> 100 µM	> 100	> 100	> 100 µM	> 100	–	–	–	–	–	–	–	–	–	–	–
C=CCC1(C(=O)OC)CCC/C(=N\O)C1 (stereo unspecified)	> 10	–	> 10	> 10	> 10 µM	> 10	> 10	> 10 µM	–	> 10	–	–	–	–	–	–	–	–	–	–
O=[N+]([O-])c1nccn1CC(O)c1ccccc1 (stereo unspecified)	> 100	> 100	> 100	> 100	> 100 µM	> 100	> 100	> 100 µM	> 100	–	–	–	–	–	–	–	–	–	–	–
CCOC(=O)C12CCCC1(O)N(NC(=O)OC)C(C)=C2C(=O)OC (stereo unspecified)	> 100	> 100	> 100	> 100	> 100 µM	> 100	> 100	> 100 µM	> 100	–	–	–	–	–	–	–	–	–	–	–
O=C(CC1(O)C(=O)Nc2c(Cl)cc(Cl)cc21)c1ccccc1 (stereo unspecified)	> 100	> 100	–	> 100	> 100 µM	> 100	> 100	> 100 µM	> 100	–	–	–	–	–	–	–	–	–	–	–
Cc1c(Cn2c(C)nc3c(C(=O)O)cc(N4CCOCC4)cc32)cccc1C(F)(F)F	> 100	> 100	> 100	> 100	> 100 µM	> 100	> 100	> 100 µM	–	> 100	37.1 µM	67.2 µM	44.3 µM	40.2 µM	72.9 µM	6.38 µM	56.6 µM	–	49.2	89
COc1ccc(N2C(=O)C3CC(c4ccc(Br)cc4)c4c([nH]c5ccccc45)C3C2=O)cc1 (stereo unspecified)	> 100	77.2	> 100	26.2	> 100 µM	34.8	–	29 µM	42.7	–	–	–	–	–	–	–	–	–	–	–
COc1cc(-c2nn(-c3cccc(NC(=O)Nc4ccc(Cl)c(C(F)(F)F)c4)c3)cc2-c2ccncc2)ccc1Cl	3.71	> 32.5	> 32.5	4.22	> 32.5 µM	1.54	6.06	7.96 µM	–	2.45	1.08 µM	1.82 µM	0.979 µM	1.2 µM	1.17 µM	0.69 µM	1.02 µM	–	0.711	1.14
CC(C)(C)C(=O)N1C(C(=O)O)Cc2ccccc2[C@@H]1Cc1ccccc1 (stereo partly specified)	> 100	> 100	> 100	> 100	> 100 µM	> 100	> 100	> 100 µM	> 100	–	–	–	–	–	–	–	–	–	–	–
[N-]=[N+]=NCN1C(=O)C2C3C=CC(C2C1=O)C1C2C(=O)N(CN=[N+]=[N-])C(=O)C2C31 (stereo unspecified)	> 100	–	–	> 100	–	> 100	> 100	–	> 100	> 100	–	–	–	–	–	–	–	–	–	–
Cc1ccc(NCC2(/N=C/c3ccccc3)OC(CO)C(O)C2O)cc1 (stereo unspecified)	> 100	> 100	99.2	> 100	64.7 µM	> 100	> 100	> 100 µM	–	–	–	–	–	–	–	–	–	–	–	–
COc1ccc(/C=C/c2cc(OC)c(OC(C)=O)c(OC)c2)cc1	> 100	96.6	> 100	> 100	–	> 100	46.1	95.9 µM	> 100	–	–	–	–	–	–	–	–	–	–	–
Cc1cccc(-c2nnc3s/c(=C\c4ccc(N(C)C)cc4)c(=O)n23)c1	> 100	> 100	> 100	> 100	> 100 µM	> 100	> 100	> 100 µM	> 100	–	–	–	–	–	–	–	–	–	–	–
NC(=S)N1N=C2CCCCCC[C@@H]2[C@H]1c1ccccc1	> 100	> 100	> 100	> 100	51.7 µM	> 100	82.9	> 100 µM	> 100	–	–	–	–	–	–	–	–	–	–	–
CCOC(=O)C1(C(=O)OCC)C(C(C)(C)C)=C(C)c2ccccc21	39.5	28.5	40.9	36	40.9 µM	26.8	22.2	> 100 µM	56.2	–	–	–	–	–	–	–	–	–	–	–
COc1ccc(C(=O)C2CCC(C(=O)O)C2)cc1 (stereo unspecified)	> 100	> 100	> 100	> 100	> 100 µM	> 100	> 100	> 100 µM	> 100	–	–	–	–	–	–	–	–	–	–	–
